Molecules are shown by their SMILES.

In test [1] the test system is mixed lymphocyte reaction. The test is described as follows: in vitro mixed lymphocyte reaction (MLR) test. It counts as cell-based. Particulars: for Immunosuppressive activity (in words): MLR; for Immunosuppressive activity (MLR) (relative %): relative to FK506 = 100. On the procedure:
(2) The immunosuppressive activity was measured by the well-known in vitro mixed lymphocyte reaction (MLR) test described, for example, in European Patent Application EP-0184162-A2, page 67.

A further test concerns the target FKBP-12 (Homo sapiens, UniProt P62942). The test is described as follows: FKBP-12 binding activity measurement using 3H-dihydro-FK506. Particulars: for FKBP-12 binding activity (relative %): relative to FK506 = 100. On the procedure: (1) The FKBP-12 binding activity measurement was carried out in the same manner as described in Clinical Chemistry, 38/7, 1307-1310 (1992), using ^3H-dihydro-FK506, FKBP-12, dextran charcoaled, etc.

Test [2] addresses T1, complex of FKBP-12, bovine calcineurin, bovine calmodulin and calcium ion (UniProt P48452+P62942+P63099).
T1 construct: made in house; host or cells: E. coli HB101 (vector pFKBP333, tryptophan promoter)
The test is described as follows: Complex formation assay with solid-phase FKBP-12, detected by anti-calcineurin enzyme immunoassay (fluorometry). It counts as binding, human FKBP-12; bovine calcineurin and calmodulin. The following applies: for Concentration dependence of fluorescence intensity (in words): Table 1 concentration series; for Complex forming activity (relative %): relative to FK506 = 100, calculated from Table 1 data. On the procedure:
The plate was then washed 3 times with the same phosphate buffer solution as used in Preparation 1. FKBP-12 was thus bound to each well. An assay buffer (300 μl) having the composition shown below was added to each well and, after 15 minutes, it was removed, to block residual protein binding sites in each well. […] A solution (5 mg/ml) of a crude product, prepared by the conventional method, in 20 mM Tris-hydrochloride (pH 7.0) was 40-fold diluted with the above-mentioned assay buffer. Commercial bovine calmodulin was appropriately diluted with the above-mentioned assay buffer (to give a final concentration of 95 nM in the well). A methanol solution (1 mg/ml) of FK506 was appropriately diluted with the above-mentioned assay buffer. (3) Each well was washed (4 times) with the same buffer as the above-mentioned assay buffer except that it was free of bovine serum albumin and, then, an appropriate dilution (100 μl), in the assay buffer, of a rabbit polyclonal antibody recognizing the calcineurin Aα chain as obtained by the known method described, for example, in J. Neurochem., 58, 1643-1651 (1992) was added to each well, and the reaction was allowed to proceed at room temperature for 1 hour. (4) Each well was washed (4 times) with the same buffer as the above-mentioned assay buffer except that it was free of bovine serum albumin and, then, an appropriate dilution (100 μl), in the assay buffer, of alkaline phosphatase-labeled anti-rabbit IgG (Vector Laboratories) was added to each well. (5) Each well was washed (4 times) with the same buffer as the assay buffer except that it was free of bovine serum albumin and, then, 200 μl of a 4-methylumbelliferyl phosphate (hereinafter, 4-MU) substrate solution (1 mM), prepared as described below, was added to each well and, after the lapse of 20 minutes at room temperature, fluorometry (excitation wavelength 360 nm; emission wavelength 460 nm) was carried out using Cytofluor 2350 (trademark, Millipore Co. Ltd, USA). […] Ltd) was prepared with water and further diluted with a buffer solution (10 mM, pH 10.0) comprising diethanolamine (0.7 ml/l) and magnesium chloride hexahydrate (0.1 g/l) to give a 1 mM 4-MU substrate solution. Using the metabolites M-II and M-III shown below, which are already known as metabolites obtainable upon treatment of FK506 with rat liver microsome, as described, for example, in Drug Metabolism and Disposition, 21 (6), 971-977, quantitative analysis was carried out in the same manner as in Example 1.

Turning to `C=CC[C@@H]1/C=C(\C)C[C@H](C)C[C@H](OC)[C@H]2O[C@@](O)(C(=O)C(=O)N3CCCC[C@H]3C(=O)O[C@H](/C(C)=C/[C@@H]3CC[C@@H](O)[C@H](OC)C3)[C@H](C)[C@@H](O)CC1=O)[C@H](C)C[C@@H]2OC` [FK506, 17-Allyl-1,14-dihydroxy-12-[2-(4-hydroxy-3-methoxycyclohexyl)-1-methylvinyl]-23,25-dimethoxy-13,19,21,27-tetramethyl-11,28-dioxa-4-azatricyclo[22.3.1.0^4,9]octacos-18-ene-2,3,10,16-tetraone], in test [1], the “Immunosuppressive activity (in words)” value was “have immunosuppressive activity” and the “Immunosuppressive activity (MLR) (relative %)” value is listed as 100 relative %. On FKBP-12, the “FKBP-12 binding activity (relative %)” value came to 100 relative %. Also, in test [2], the “Detection by the complex assay method (in words)” value (“Detection” below) is “can be detected”, the “Concentration dependence of fluorescence intensity (in words)” value (shortened to “Concentration dependence”) is “give fluorescence intensities depending on their concentrations” and the “Complex forming activity (relative %)” value is recorded as 100 relative %.

For the molecule `C=CCC1/C=C(\C)CC(C)CC(O)C2OC(O)(C(=O)C(=O)N3CCCCC3C(=O)OC(/C(C)=C/C3CCC(O)C(C)C3)C(C)C(O)CC1=O)C(C)CC2OC` (stereo not shown) [M-III], in test [1], the “Immunosuppressive activity (in words)” value is “has no immunosuppressive activity” and the “Immunosuppressive activity (MLR) (relative %)” value was found to be 0 relative %. Further, on FKBP-12, the “FKBP-12 binding activity (in words)” value was “has FKBP-12 binding activity” and the “FKBP-12 binding activity (relative %)” value was 116.0 relative %. In test [2], the “Detection” value was “is not detected”, the “Concentration dependence” value is listed as “does not give concentration-dependent values” and the “Complex forming activity (relative %)” value was 0 relative %.

As for `C=CCC1/C=C(\C)CC(C)CC(OC)C2OC(O)(C(=O)C(=O)N3CCCCC3C(=O)OC(/C(C)=C/C3CCC(O)C(O)C3)C(C)C(O)CC1=O)C(C)CC2OC` (stereo not shown) [M-II], in test [1], the “Immunosuppressive activity (in words)” value is recorded as “have immunosuppressive activity” and the “Immunosuppressive activity (MLR) (relative %)” value is given as 100 relative %. In addition, the “FKBP-12 binding activity (relative %)” value on FKBP-12 came to 14.2 relative %. Besides, in test [2], the “Detection” value is listed as “can be detected”, the “Concentration dependence” value is “give fluorescence intensities depending on their concentrations” and the “Complex forming activity (relative %)” value is listed as 79.7 relative %.
